Measurements as given in patent publication US12612412B2, “Antiviral heterocyclic compounds” (Enanta Pharmaceuticals, Inc., priority 2021, dated 2026).

System: genotype A, "Long" strain RSV
Assay: RSV-A assay (CPE protection in Hep-2 cells, ATPlite readout)
Assay type: cell-based, Human respiratory syncytial virus (HRSV)
Conditions: human respiratory syncytial virus, RSV-A Long strain, MOI 0.1, CPE protection, read-out: Human RSV-A (“Long”) EC50
Summary of the method: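 Compound effect on RSV-induced CPE: Hep-2 monolayers, MOI 0.1, duplicate 2-fold titrations, 5-day culture in 10% FBS DMEM. Readout is ATP-based luminescence, normalised to virus-only and no-virus controls, giving EC50.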

EC50 [nM]	Compound
> 200	COc1cc(C(=O)NC[C@@](O)(c2cc3c(c(-c4ccc5c(c4)OC(F)(F)O5)n2)OC[C@]3(C)C(N)=O)C(F)(F)F)cc2cn(C3CC3)nc12 [Example 894]
> 200	COc1cc(C(=O)NC[C@@](O)(c2cc3c(c(-c4ccc(C(F)F)cc4)n2)OC[C@]3(C)C(N)=O)C(F)(F)F)cc2cn(C3CC3)nc12 [Example 895]
> 200	COc1cc(C(=O)NC[C@@](O)(c2cc3c(c(-c4ccc(OC(F)(F)F)cc4)n2)OC[C@]3(C)C(N)=O)C(F)(F)F)cc2cn(C3CC3)nc12 [Example 897]
< 200	COc1cc(C(=O)NC[C@@](O)(c2cc3c(c(-c4ccc(F)cc4F)n2)OC[C@]3(C)C(N)=O)C(F)(F)F)cc2cn(C3CC3)nc12 [Example 900]
> 200	COc1cc(C(=O)NC[C@](O)(c2cc3c(c(-c4ccc5oc(C)nc5c4)n2)OC[C@]3(C)C(N)=O)C(F)(F)F)cc2cn(C3CC3)nc12 [Example 902]
> 200	COc1cc(C(=O)NC[C@](O)(c2cc3c(c(-c4cn(C)nc4C(F)(F)F)n2)OC[C@]3(C)C(N)=O)C(F)(F)F)cc2cn(C3CC3)nc12 [Example 904]
> 200	COc1ccc(-c2nc([C@](O)(CNC(=O)c3cc(OC)c4nn(C5CC5)cc4c3)C(F)(F)F)cc3c2OC[C@]3(C)C(N)=O)cc1OC [Example 905]
< 200	COc1ccc(-c2nc([C@@](O)(CNC(=O)c3cc(OC)c4nn(C5CC5)cc4c3)C(F)(F)F)cc3c2OC[C@]3(C)C(N)=O)cc1OC [Example 906]
> 200	COc1cc(C(=O)NC[C@@](O)(c2cc3c(c(-c4ccc5c(c4)OCO5)n2)OC[C@]3(C)C(N)=O)C(F)(F)F)cc2cn(C3CC3)nc12 [Example 907]
> 200	COc1cc(C(=O)NC[C@@](O)(c2cc3c(c(-c4ccccc4F)n2)OC[C@]3(C)C(N)=O)C(F)(F)F)cc2cn(C3CC3)nc12 [Example 910]
< 200	COc1cc(C(=O)NC[C@](O)(c2cc3c(c(-c4ccc(F)cc4)n2)OC[C@]3(C(N)=O)C(F)F)C(F)(F)F)cc2cn(C3CC3)nc12 [Example 998]
> 200	COc1cc(C(=O)NC[C@](O)(c2cc3c(c(-c4ccc(F)c(Cl)c4)n2)OC[C@@]3(CF)C(N)=O)C(F)(F)F)ccc1OC1CC1 [Example 1048]
< 200	COc1cc(C(=O)NC[C@](O)(c2cc3c(c(-c4ccc(F)c(Cl)c4)n2)OC[C@]3(C)C(N)=O)C(F)(F)F)cc2cc(C)c(Cl)nc12 [Example 1071]
< 200	COc1cc(C(=O)NC[C@](O)(c2cc3c(c(-c4cccc(F)c4Cl)n2)OC[C@]3(C)C(N)=O)C2CC2)cc2cc(C)c(Cl)nc12 [Example 1073]
< 200	Cc1cc2cc(C(=O)NC[C@](O)(c3cc4c(c(-c5ccc(F)cc5)n3)OC[C@]4(C)C(N)=O)C(F)(F)F)cc(OC3CC3)c2nc1Cl [Example 1075]
< 200	Cc1cc2cc(C(=O)NC[C@](O)(c3cc4c(c(-c5ccc(F)c(Cl)c5)n3)OC[C@]4(C)C(N)=O)C(F)(F)F)cc(OC3CC3)c2nc1Cl [Example 1076]
< 200	Cc1cc2cc(C(=O)NC[C@](O)(c3cc4c(c(-c5ccc(F)c(Cl)c5F)n3)OC[C@]4(C)C(N)=O)C3CC3)cc(OC3CC3)c2nc1Cl [Example 1077]
< 200	Cc1cc2cc(C(=O)NC[C@](O)(c3cc4c(c(-c5cccc(F)c5Cl)n3)OC[C@]4(C)C(N)=O)C3CC3)cc(OC3CC3)c2nc1Cl [Example 1078]
< 200	Cc1cc2cc(C(=O)NC[C@](O)(c3cc4c(c(-c5ccc6c(c5)OC(F)(F)O6)n3)OC[C@]4(C)C(N)=O)C3CC3)cc(OC3CC3)c2nc1Cl [Example 1079]
< 200	C[C@]1(C(N)=O)COc2c1cc([C@@](O)(CNC(=O)c1cc(OC3CC3)c3nn(C(F)F)cc3c1)C1CC1)nc2-c1cc(Br)c(F)cc1F [Example 1086]
< 200	COc1cc(C(=O)NC[C@](O)(c2cc3c(c(-c4cccc(F)c4Cl)n2)OC[C@]3(C)C(N)=O)C(F)(F)F)cc2cn(C3CC3)nc12 [Example 1107]
< 200	COc1cc(C(=O)NC[C@](O)(c2cc3c(c(-c4ccc(F)cc4)n2)OC[C@]3(C)C(N)=O)C2CC2)cc2cc(C)nnc12 [Example 1108]
< 200	COc1cc(C(=O)NC[C@](O)(c2cc3c(c(-c4ccc(F)cc4)n2)OC[C@]3(C)C(N)=O)C2CC2)cc2cc(C3CC3)nnc12 [Example 1109]
< 200	COc1cc(C(=O)NC[C@](O)(c2cc3c(c(-c4ccc5c(c4)OC(F)(F)O5)n2)OC[C@]3(C)C(N)=O)C(F)(F)F)cc2cc(C)nnc12 [Example 1110]
< 200	COc1cc(C(=O)NC[C@](O)(c2cc3c(c(-c4ccc5c(c4)OC(F)(F)O5)n2)OC[C@]3(C)C(N)=O)C(F)(F)F)cc2cc(C3CC3)nnc12 [Example 1111]
< 200	COc1cc(C(=O)NC[C@](O)(c2cc3c(c(-c4cc(Cl)c(F)cc4F)n2)OC[C@]3(C)C(N)=O)C2(F)CC2)cc2cn(C(F)F)nc12 [Example 1112]
< 200	COc1cc(C(=O)NC[C@](O)(c2cc3c(c(-c4cc(Cl)c(F)cc4F)n2)OC[C@]3(C)C(N)=O)C2(F)CC2)cc2cc(Br)cnc12 [Example 1113]

EC50 [nM]	Compound
< 200	COc1cc(C(=O)NC[C@](O)(c2cc3c(c(-c4ccc(F)c(Cl)c4F)n2)OC[C@]3(C)C(N)=O)C2(F)CC2)cc2cc(Br)cnc12 [Example 1114]
< 200	COc1cc(C(=O)NC[C@](O)(c2cc3c(c(-c4ccc(F)cc4)n2)OC[C@]3(C)C(N)=O)C(F)(F)F)cc2cc(Br)c(C)nc12 [Example 1115]
< 200	COc1cc(C(=O)NC[C@](O)(c2cc3c(c(-c4ccc(F)cc4)n2)OC[C@]3(C)C(N)=O)C2CC2)cc2cc(Br)c(C)nc12 [Example 1117]
< 200	COc1cc(C(=O)NC[C@](O)(c2cc3c(c(-c4ccc(F)cc4)n2)OC[C@]3(C)C(N)=O)C2(F)CC2)cc2cc(Br)c(C)nc12 [Example 1118]
< 200	COc1cc(C(=O)NC[C@](O)(c2cc3c(c(-c4ccc(F)c(Cl)c4F)n2)OC[C@]3(C)C(N)=O)C2CC2)cc2cc(Br)c(C)nc12 [Example 1129]
< 200	COc1cc(C(=O)NC[C@](O)(c2cc3c(c(-c4ccc5c(c4)OC(F)(F)O5)n2)OC[C@]3(C)C(N)=O)C2CC2)cc2cc(Br)c(C)nc12 [Example 1130]
< 200	COc1cc(C(=O)NC[C@](O)(c2cc3c(c(-c4cc(Cl)c(F)cc4F)n2)OC[C@]3(C)C(N)=O)C2CC2)cc2sc(C)nc12 [Example 1131]
< 200	COc1cc(C(=O)NC[C@](O)(c2cc3c(c(-c4cc(Cl)c(F)cc4F)n2)OC[C@]3(C)C(N)=O)C2CC2)cc2sc(C3CC3)nc12 [Example 1132]
< 200	CCNC(=O)[C@@]1(C)COc2c1cc([C@@](O)(CNC(=O)c1cc(OC)c3nn(C4CC4)cc3c1)C(F)(F)F)nc2-c1ccc(F)cc1 [Example 1171]
< 200	COc1cc(C(=O)NC[C@](O)(c2cc3c(c(-c4ccc(F)cc4)n2)OC[C@]3(C)C(=O)NC2CC2)C(F)(F)F)cc2cn(C3CC3)nc12 [Example 1172]
< 200	COc1cc(C(=O)NC[C@](O)(c2cc3c(c(-c4ccc(F)cc4)n2)OC[C@]3(C)C(=O)NCC(F)(F)F)C(F)(F)F)cc2cn(C3CC3)nc12 [Example 1173]
< 200	COc1cc(C(=O)NC[C@](O)(c2cc3c(c(-c4ccc(F)cc4)n2)OC[C@]3(C)C(=O)NC2COC2)C(F)(F)F)cc2cn(C3CC3)nc12 [Example 1174]
< 200	COc1cc(C(=O)NC[C@](O)(c2cc3c(c(-c4ccc(F)cc4)n2)OC[C@]3(C)C(=O)NCCC(C)(C)O)C(F)(F)F)cc2cn(C3CC3)nc12 [Example 1175]
< 200	COc1cc(C(=O)NC[C@](O)(c2cc3c(c(-c4ccc(F)cc4)n2)OC[C@]3(C)C(=O)NC2(C)CC2)C(F)(F)F)cc2cn(C3CC3)nc12 [Example 1176]
< 200	C[C@]1(C(N)=O)COc2c1cc([C@@](O)(CNC(=O)c1cc(OC3CC3)c3nn(C(F)F)cc3c1)C1CC1)nc2-c1ccc(F)c(F)c1Cl [Example 1197]
< 200	C[C@]1(C(N)=O)COc2c1cc([C@@](O)(CNC(=O)c1cc(OC3CC3)c3nn(C(F)F)cc3c1)C1CC1)nc2-c1cccc(Cl)c1F [Example 1198]
< 200	C[C@]1(C(N)=O)COc2c1cc([C@@](O)(CNC(=O)c1cc(OC3CC3)c3nn(C(F)F)cc3c1)C1CC1)nc2-c1cc(Cl)ccc1F [Example 1199]
< 200	Cc1cnc2c(OC(F)F)cc(C(=O)NC[C@](O)(c3cc4c(c(-c5cc(Cl)ccc5F)n3)OC[C@]4(C)C(N)=O)C3CC3)cc2c1 [Example 1200]
< 200	CNC(=O)[C@@]1(C)COc2c1cc([C@](O)(CNC(=O)c1cc(OC)c3nn(C4CC4)cc3c1)C(F)(F)F)nc2-c1ccc(F)c(F)c1Cl [Example 1201]
< 200	CNC(=O)[C@@]1(C)COc2c1cc([C@@](O)(CNC(=O)c1cc(OC)c3nn(C4CC4)cc3c1)C(F)(F)F)nc2-c1ccc(F)c(F)c1Cl [Example 1202]
< 200	CNC(=O)[C@@]1(C)COc2c1cc([C@@](O)(CNC(=O)c1cc(OC)c3nn(C4CC4)cc3c1)C(F)(F)F)nc2-c1cc(Cl)c(F)cc1F [Example 1203]
< 200	COc1cc(C(=O)NC[C@](O)(c2cc3c(c(-c4ccc(F)c(F)c4Cl)n2)OC[C@]3(C)C(=O)NC2(C)CC2)C(F)(F)F)cc2cn(C3CC3)nc12 [Example 1204]
< 200	COc1cc(C(=O)NC[C@](O)(c2cc3c(c(-c4cc(Cl)c(F)cc4F)n2)OC[C@]3(C)C(=O)NC2(C)CC2)C(F)(F)F)cc2cn(C3CC3)nc12 [Example 1205]
< 200	Cc1cnc2c(OC(F)F)cc(C(=O)NC[C@](O)(c3cc4c(c(-c5cccc(Br)c5F)n3)OC[C@]4(C)C(N)=O)C3CC3)cc2c1 [Example 1206]
< 200	Cc1cnc2c(OC(F)F)cc(C(=O)NC[C@](O)(c3cc4c(c(-c5ccc(F)c(Br)c5F)n3)OC[C@]4(C)C(N)=O)C3CC3)cc2c1 [Example 1207]
< 200	Cc1cnc2c(OC(F)F)cc(C(=O)NC[C@](O)(c3cc4c(c(-c5ccc(F)c(C(F)(F)F)c5)n3)OC[C@]4(C)C(N)=O)C3CC3)cc2c1 [Example 1208]
